Assay results reported in ChEMBL document CHEMBL1641586, “Stereospecific synthesis and structure-activity relationships of unsymmetrical 4,4-diphenylbut-3-enyl derivatives of nipecotic acid as GAT-1 inhibitors” (Bioorg Med Chem Lett, 2011).

Each molecule was assayed against T1, Sodium- and chloride-dependent GABA transporter 2 (Homo sapiens, UniProt Q9NSD5) (assay: Inhibition of GAT2).
T1 sequence (Q9NSD5 whole entry): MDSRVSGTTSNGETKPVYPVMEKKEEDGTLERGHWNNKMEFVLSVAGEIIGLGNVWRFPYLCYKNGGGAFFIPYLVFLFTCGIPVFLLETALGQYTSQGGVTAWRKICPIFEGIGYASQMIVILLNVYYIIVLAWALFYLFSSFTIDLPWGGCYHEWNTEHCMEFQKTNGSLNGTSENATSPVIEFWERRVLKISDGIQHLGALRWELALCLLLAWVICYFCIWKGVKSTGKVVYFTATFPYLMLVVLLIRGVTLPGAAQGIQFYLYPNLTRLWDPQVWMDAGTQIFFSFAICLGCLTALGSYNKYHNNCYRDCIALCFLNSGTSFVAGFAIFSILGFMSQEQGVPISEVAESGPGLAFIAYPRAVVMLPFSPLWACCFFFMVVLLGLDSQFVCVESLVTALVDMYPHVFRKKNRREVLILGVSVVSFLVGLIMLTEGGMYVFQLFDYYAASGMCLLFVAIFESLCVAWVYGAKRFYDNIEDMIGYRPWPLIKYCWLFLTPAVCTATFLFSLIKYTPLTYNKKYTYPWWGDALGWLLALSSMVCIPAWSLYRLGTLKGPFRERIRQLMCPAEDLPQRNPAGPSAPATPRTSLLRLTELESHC
An IC50 greater than 100000 nM was found for `Cc1ccccc1/C(=C\CCN1CCC[C@@H](C(=O)O)C1)c1ccccc1F` in this work.

These molecules were tested against T2, Sodium- and chloride-dependent GABA transporter 3 (Homo sapiens, UniProt P48066) (assay: Inhibition of GAT3).
T2 sequence (P48066 whole entry): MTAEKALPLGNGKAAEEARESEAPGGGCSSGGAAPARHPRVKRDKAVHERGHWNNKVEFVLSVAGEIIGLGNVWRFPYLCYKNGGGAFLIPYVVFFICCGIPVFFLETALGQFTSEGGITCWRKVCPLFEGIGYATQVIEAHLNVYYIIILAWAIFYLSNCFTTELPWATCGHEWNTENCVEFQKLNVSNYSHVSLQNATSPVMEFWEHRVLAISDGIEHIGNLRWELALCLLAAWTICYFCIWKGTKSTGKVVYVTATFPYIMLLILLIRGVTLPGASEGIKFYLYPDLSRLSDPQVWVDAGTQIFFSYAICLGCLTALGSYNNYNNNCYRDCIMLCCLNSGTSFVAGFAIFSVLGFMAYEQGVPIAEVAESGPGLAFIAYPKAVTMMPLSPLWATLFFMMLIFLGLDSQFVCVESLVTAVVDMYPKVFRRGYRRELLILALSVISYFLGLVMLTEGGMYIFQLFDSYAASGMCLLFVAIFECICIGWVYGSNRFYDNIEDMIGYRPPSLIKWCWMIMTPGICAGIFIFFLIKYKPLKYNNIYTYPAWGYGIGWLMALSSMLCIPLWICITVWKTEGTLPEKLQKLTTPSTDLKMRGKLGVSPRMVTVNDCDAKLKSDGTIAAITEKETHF
An IC50 greater than 100000 nM was found for `Cc1ccccc1/C(=C\CCN1CCC[C@@H](C(=O)O)C1)c1ccccc1F` in this work.

These molecules were tested against T3, Cytochrome P450 1A2 (Homo sapiens, UniProt P05177) (assay: Inhibition of CYP1A2).
T3 sequence (P05177 whole entry): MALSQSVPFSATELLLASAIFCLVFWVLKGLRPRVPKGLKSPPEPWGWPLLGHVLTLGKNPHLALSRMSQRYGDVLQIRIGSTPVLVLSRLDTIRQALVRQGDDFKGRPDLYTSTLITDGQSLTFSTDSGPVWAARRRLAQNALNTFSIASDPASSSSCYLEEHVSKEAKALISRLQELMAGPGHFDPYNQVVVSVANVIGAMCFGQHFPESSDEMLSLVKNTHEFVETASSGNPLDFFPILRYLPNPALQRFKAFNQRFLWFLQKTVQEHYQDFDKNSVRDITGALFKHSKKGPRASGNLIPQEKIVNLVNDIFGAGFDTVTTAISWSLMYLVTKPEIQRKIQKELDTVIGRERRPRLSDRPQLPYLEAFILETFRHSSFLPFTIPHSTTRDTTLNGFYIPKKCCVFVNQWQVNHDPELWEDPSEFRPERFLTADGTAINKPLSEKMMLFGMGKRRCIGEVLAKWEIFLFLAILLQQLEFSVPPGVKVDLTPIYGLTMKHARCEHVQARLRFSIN
Type: ADME
An IC50 greater than 10000 nM was found for `Cc1ccccc1/C(=C\CCN1CCC[C@@H](C(=O)O)C1)c1ccccc1F` in this work.

These molecules were tested against Sodium- and chloride-dependent GABA transporter 1 (Homo sapiens, UniProt P30531) (assay: Displacement of [3H]Tiagabine from human recombinant GAT1 expressed in HEK293 cells by equilibrium binding assay).
Chain of Sodium- and chloride-dependent GABA transporter 1 (P30531 whole entry): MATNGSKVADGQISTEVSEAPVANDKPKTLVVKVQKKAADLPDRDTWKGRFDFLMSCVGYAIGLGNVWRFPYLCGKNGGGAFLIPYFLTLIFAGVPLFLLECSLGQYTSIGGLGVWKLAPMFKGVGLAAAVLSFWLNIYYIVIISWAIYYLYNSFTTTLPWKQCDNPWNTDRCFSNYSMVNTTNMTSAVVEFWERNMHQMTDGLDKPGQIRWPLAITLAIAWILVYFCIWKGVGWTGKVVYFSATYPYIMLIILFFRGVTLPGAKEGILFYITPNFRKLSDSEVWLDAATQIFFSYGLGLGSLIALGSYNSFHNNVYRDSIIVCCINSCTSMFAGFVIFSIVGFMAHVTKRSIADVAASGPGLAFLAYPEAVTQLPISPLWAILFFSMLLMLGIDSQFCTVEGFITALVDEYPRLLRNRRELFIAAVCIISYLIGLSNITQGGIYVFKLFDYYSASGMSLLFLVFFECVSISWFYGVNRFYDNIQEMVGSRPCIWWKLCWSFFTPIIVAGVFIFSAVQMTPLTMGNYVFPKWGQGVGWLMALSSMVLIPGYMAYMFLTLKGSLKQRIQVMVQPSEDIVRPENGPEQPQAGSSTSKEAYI
Type: cell-based
A Ki of 14.8 nM was found for `Cc1ccccc1/C(=C\CCN1CCC[C@@H](C(=O)O)C1)c1ccccc1F` in this work.
A Ki of 372 nM was found for `O=C(O)[C@@H]1CCCN(CC/C=C(\c2ccccc2)c2ccccc2F)C1` in this work.
A Ki of 166 nM was found for `O=C(O)[C@@H]1CCCN(CC/C=C(\c2ccccc2)c2ccccc2Cl)C1` in this work.
A Ki of 200 nM was found for `O=C(O)[C@@H]1CCCN(CC/C=C(\c2ccccc2)c2ccccc2Br)C1` in this work.
A Ki of 1910 nM was found for `O=C(O)[C@@H]1CCCN(CC/C=C(\c2ccccc2)c2ccccc2C(F)(F)F)C1` in this work.
A Ki of 93.3 nM was found for `Cc1ccccc1/C(=C/CCN1CCC[C@@H](C(=O)O)C1)c1ccccc1` in this work.
A Ki of 102 nM was found for `CCc1ccccc1/C(=C/CCN1CCC[C@@H](C(=O)O)C1)c1ccccc1` in this work.
A Ki of 676 nM was found for `O=C(O)[C@@H]1CCCN(CC/C=C(\c2ccccc2)c2ccccc2-c2ccccc2)C1` in this work.
A Ki of 372 nM was found for `COc1ccccc1/C(=C/CCN1CCC[C@@H](C(=O)O)C1)c1ccccc1` in this work.
A Ki of 646 nM was found for `O=C(O)[C@@H]1CCCN(CC/C=C(\c2ccccc2)c2ccccc2OC(F)(F)F)C1` in this work.
A Ki of 692 nM was found for `O=C(O)[C@@H]1CCCN(CC/C=C(\c2ccccc2)c2c(F)cccc2F)C1` in this work.
A Ki of 380 nM was found for `Cc1cc(F)ccc1/C(=C/CCN1CCC[C@@H](C(=O)O)C1)c1ccccc1` in this work.
A Ki of 69.2 nM was found for `O=C(O)[C@@H]1CCCN(CC/C=C(/c2ccccc2)c2ccccc2F)C1` in this work.
A Ki of 40.7 nM was found for `O=C(O)[C@@H]1CCCN(CC/C=C(/c2ccccc2)c2ccccc2Cl)C1` in this work.
A Ki of 28.8 nM was found for `O=C(O)[C@@H]1CCCN(CC/C=C(/c2ccccc2)c2ccccc2Br)C1` in this work.
A Ki of 93.3 nM was found for `O=C(O)[C@@H]1CCCN(CC/C=C(/c2ccccc2)c2ccccc2C(F)(F)F)C1` in this work.
A Ki of 20.4 nM was found for `Cc1ccccc1/C(=C\CCN1CCC[C@@H](C(=O)O)C1)c1ccccc1` in this work.
A Ki of 29.5 nM was found for `CCc1ccccc1/C(=C\CCN1CCC[C@@H](C(=O)O)C1)c1ccccc1` in this work.
A Ki of 1070 nM was found for `O=C(O)[C@@H]1CCCN(CC/C=C(/c2ccccc2)c2ccccc2-c2ccccc2)C1` in this work.
A Ki of 56.2 nM was found for `COc1ccccc1/C(=C\CCN1CCC[C@@H](C(=O)O)C1)c1ccccc1` in this work.
A Ki of 58.9 nM was found for `O=C(O)[C@@H]1CCCN(CC/C=C(/c2ccccc2)c2ccccc2OC(F)(F)F)C1` in this work.
A Ki of 331 nM was found for `O=C(O)[C@@H]1CCCN(CC/C=C(/c2ccccc2)c2c(F)cccc2F)C1` in this work.
A Ki of 33.9 nM was found for `Cc1cc(F)ccc1/C(=C\CCN1CCC[C@@H](C(=O)O)C1)c1ccccc1` in this work.
A Ki of 77.6 nM was found for `Cc1cccc(C)c1/C(=C\CCN1CCC[C@@H](C(=O)O)C1)c1ccccc1` in this work.
A Ki of 72.4 nM was found for `Cc1ccccc1/C(=C/CCN1CCC[C@@H](C(=O)O)C1)c1ccccc1F` in this work.
A Ki of 89.1 nM was found for `CCc1ccccc1/C(=C/CCN1CCC[C@@H](C(=O)O)C1)c1ccccc1F` in this work.
A Ki of 46.8 nM was found for `O=C(O)[C@@H]1CCCN(CCC=C(c2ccccc2F)c2ccccc2F)C1` in this work.
A Ki of 158 nM was found for `O=C(O)[C@@H]1CCCN(CC/C=C(\c2ccccc2F)c2ccccc2Cl)C1` in this work.
A Ki of 355 nM was found for `O=C(O)[C@@H]1CCCN(CC/C=C(\c2ccccc2F)c2ccccc2C(F)(F)F)C1` in this work.
A Ki of 61.7 nM was found for `Cc1ccccc1/C(=C\CCN1CCC[C@@H](C(=O)O)C1)c1ccccc1Cl` in this work.
A Ki of 380 nM was found for `Cc1ccccc1/C(=C\CCN1CCC[C@@H](C(=O)O)C1)c1ccccc1C(F)(F)F` in this work.
A Ki of 70.8 nM was found for `COc1ccccc1/C(=C/CCN1CCC[C@@H](C(=O)O)C1)c1ccccc1C` in this work.
A Ki of 41.7 nM was found for `Cc1ccccc1C(=CCCN1CCC[C@@H](C(=O)O)C1)c1ccccc1C` in this work.
A Ki of 38 nM was found for `CCc1ccccc1/C(=C\CCN1CCC[C@@H](C(=O)O)C1)c1ccccc1F` in this work.
A Ki of 18.2 nM was found for `O=C(O)[C@@H]1CCCN(CC/C=C(/c2ccccc2F)c2ccccc2Cl)C1` in this work.
A Ki of 21.9 nM was found for `O=C(O)[C@@H]1CCCN(CC/C=C(/c2ccccc2F)c2ccccc2Br)C1` in this work.
A Ki of 52.5 nM was found for `O=C(O)[C@@H]1CCCN(CC/C=C(/c2ccccc2F)c2ccccc2OC(F)(F)F)C1` in this work.
A Ki of 53.7 nM was found for `COc1ccccc1/C(=C\CCN1CCC[C@@H](C(=O)O)C1)c1ccccc1F` in this work.
A Ki of 19.1 nM was found for `Cc1cc(F)ccc1/C(=C\CCN1CCC[C@@H](C(=O)O)C1)c1ccccc1F` in this work.
A Ki of 38.9 nM was found for `Cc1cc(F)ccc1/C(=C\CCN1CCC[C@@H](C(=O)O)C1)c1ccccc1C(F)(F)F` in this work.
A Ki of 138 nM was found for `Cc1ccc(C(=CCCN2CCCC(F)(C(=O)O)C2)c2ccc(C)s2)s1` (configuration not stated) in this work.
A Ki of 832 nM was found for `O=C(O)C1(F)CCCN(CCC=C(c2ccccc2)c2ccccc2)C1` (configuration not stated) in this work.
A Ki of 2750 nM was found for `CC(=O)[C@@H]1CC[C@H]2CC[C@@H]1N2CCC=C(c1ccccc1)c1ccccc1` in this work.
A Ki greater than 10000 nM was found for `Cc1ccc(C(=CCCN2CCOC(C(=O)O)C2)c2ccc(C)s2)s1` (configuration not stated) in this work.
A Ki greater than 10000 nM was found for `Cc1ccc(C(=CCCN(C)[C@H]2CCC[C@@H]2C(=O)O)c2ccc(C)s2)s1` in this work.
A Ki greater than 10000 nM was found for `Cc1ccc(C(=CCCN(C)[C@H]2CCCC[C@@H]2C(=O)O)c2ccc(C)s2)s1` in this work.
A Ki greater than 10000 nM was found for `Cc1ccc(C(=CCCN2C[C@@H]3[C@H](C2)[C@@H]3C(=O)O)c2ccc(C)s2)s1` in this work.
A Ki greater than 10000 nM was found for `Cc1ccc(C(=CCCN2C[C@@H]3[C@H](C2)[C@H]3C(=O)O)c2ccc(C)s2)s1` in this work.
A Ki greater than 10000 nM was found for `Cc1ccc(C(=CCCN2CC[C@@H]3[C@H](C2)[C@@H]3C(=O)O)c2ccc(C)s2)s1` in this work.
A Ki greater than 10000 nM was found for `Cc1ccc(C(=CCCN2CC[C@H]3[C@@H](C2)[C@@H]3C(=O)O)c2ccc(C)s2)s1` in this work.

Each molecule was assayed against Cytochrome P450 3A4 (Homo sapiens, UniProt P08684) (assay: Inhibition of CYP3A4).
Chain of Cytochrome P450 3A4 (P08684 whole entry): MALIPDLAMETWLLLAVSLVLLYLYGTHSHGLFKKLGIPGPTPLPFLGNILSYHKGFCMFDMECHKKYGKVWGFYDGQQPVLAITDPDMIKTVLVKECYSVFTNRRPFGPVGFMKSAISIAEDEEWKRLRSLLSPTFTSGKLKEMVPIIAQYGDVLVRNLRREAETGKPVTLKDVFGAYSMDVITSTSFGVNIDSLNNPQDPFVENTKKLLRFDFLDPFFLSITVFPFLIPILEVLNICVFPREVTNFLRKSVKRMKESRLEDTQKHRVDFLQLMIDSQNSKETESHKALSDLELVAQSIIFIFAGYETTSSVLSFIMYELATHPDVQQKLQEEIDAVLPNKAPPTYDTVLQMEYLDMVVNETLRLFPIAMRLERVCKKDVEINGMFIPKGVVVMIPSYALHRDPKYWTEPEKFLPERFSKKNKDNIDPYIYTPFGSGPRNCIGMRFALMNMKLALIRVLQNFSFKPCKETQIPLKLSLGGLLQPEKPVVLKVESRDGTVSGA
Type: ADME
An IC50 greater than 10000 nM was found for `Cc1ccccc1/C(=C\CCN1CCC[C@@H](C(=O)O)C1)c1ccccc1F` in this work.

Each molecule was assayed against Cytochrome P450 2C9 (Homo sapiens, UniProt P11712) (assay: Inhibition of CYP2C9).
Chain of Cytochrome P450 2C9 (P11712 whole entry): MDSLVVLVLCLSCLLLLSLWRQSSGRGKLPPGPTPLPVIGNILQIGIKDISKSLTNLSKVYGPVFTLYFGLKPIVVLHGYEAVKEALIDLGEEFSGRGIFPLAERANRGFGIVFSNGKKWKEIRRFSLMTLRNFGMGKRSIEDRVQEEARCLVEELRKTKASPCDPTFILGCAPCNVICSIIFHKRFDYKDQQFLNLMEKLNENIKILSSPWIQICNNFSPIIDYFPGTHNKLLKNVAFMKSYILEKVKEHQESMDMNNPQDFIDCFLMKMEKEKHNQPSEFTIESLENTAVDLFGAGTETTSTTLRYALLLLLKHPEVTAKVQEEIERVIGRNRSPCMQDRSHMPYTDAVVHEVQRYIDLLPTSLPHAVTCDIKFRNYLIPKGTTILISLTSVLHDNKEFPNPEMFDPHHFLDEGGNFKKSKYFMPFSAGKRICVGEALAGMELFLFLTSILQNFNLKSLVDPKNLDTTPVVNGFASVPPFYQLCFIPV
Type: ADME
An IC50 greater than 10000 nM was found for `Cc1ccccc1/C(=C\CCN1CCC[C@@H](C(=O)O)C1)c1ccccc1F` in this work.

What follows are molecules tested against Cytochrome P450 2C19 (Homo sapiens, UniProt P33261) (assay: Inhibition of CYP2C19).
Chain of Cytochrome P450 2C19 (P33261 whole entry): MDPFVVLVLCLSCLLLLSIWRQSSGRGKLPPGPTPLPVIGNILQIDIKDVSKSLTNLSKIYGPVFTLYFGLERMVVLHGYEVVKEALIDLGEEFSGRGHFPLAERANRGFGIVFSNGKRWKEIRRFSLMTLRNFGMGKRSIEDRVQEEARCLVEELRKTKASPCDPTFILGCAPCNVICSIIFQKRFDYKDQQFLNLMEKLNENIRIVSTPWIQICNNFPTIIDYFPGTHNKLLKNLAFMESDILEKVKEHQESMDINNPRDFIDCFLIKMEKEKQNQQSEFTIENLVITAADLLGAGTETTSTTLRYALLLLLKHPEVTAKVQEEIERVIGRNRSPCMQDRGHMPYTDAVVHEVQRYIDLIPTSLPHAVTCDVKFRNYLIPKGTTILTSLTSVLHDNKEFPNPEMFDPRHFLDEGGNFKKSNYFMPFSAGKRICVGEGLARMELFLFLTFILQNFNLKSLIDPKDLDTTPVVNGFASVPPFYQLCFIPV
Type: ADME
An IC50 greater than 10000 nM was found for `Cc1ccccc1/C(=C\CCN1CCC[C@@H](C(=O)O)C1)c1ccccc1F` in this work.

These molecules were tested against T4, Sodium- and chloride-dependent betaine transporter (Homo sapiens, UniProt P48065) (assay: Inhibition of BGT1).
T4 sequence (P48065 whole entry): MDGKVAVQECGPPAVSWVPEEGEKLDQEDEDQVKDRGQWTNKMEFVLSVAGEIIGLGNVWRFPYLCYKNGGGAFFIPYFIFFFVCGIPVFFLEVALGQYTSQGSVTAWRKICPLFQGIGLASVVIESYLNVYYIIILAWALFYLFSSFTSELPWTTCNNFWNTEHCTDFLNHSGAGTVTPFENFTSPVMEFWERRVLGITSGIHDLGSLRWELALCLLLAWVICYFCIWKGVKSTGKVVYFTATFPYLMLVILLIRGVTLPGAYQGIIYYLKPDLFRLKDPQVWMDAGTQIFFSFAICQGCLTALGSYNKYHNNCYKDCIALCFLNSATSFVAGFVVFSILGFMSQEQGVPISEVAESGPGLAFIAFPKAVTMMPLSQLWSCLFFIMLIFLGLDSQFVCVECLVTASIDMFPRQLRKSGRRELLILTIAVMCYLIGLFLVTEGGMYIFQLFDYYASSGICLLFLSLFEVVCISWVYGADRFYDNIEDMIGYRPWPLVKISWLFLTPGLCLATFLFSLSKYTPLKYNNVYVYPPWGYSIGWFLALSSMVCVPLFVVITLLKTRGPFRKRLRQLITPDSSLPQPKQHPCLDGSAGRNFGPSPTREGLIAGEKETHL
An IC50 greater than 100000 nM was found for `Cc1ccccc1/C(=C\CCN1CCC[C@@H](C(=O)O)C1)c1ccccc1F` in this work.
